Data: patent publication US20120196854A1, “PHARMACEUTICAL COMPOSITION COMPRISING AROMATIC HETEROCYCLIC COMPOUND” (Kyowa Hakko Kirin Co., Ltd., priority 2009, published 2012)

Key:
[1] = biological target: T1, human lipocalin-prostaglandin D2 synthase (human lipocalin-PGDS) (Homo sapiens, UniProt P41222); assay: Inhibition of human lipocalin-PGDS enzyme activity; type: biochemical; conditions: at a concentration of 10 μmol/L; read-out: inhibitory rate, human lipocalin-PGDS
T1 sequence (P41222 23-190): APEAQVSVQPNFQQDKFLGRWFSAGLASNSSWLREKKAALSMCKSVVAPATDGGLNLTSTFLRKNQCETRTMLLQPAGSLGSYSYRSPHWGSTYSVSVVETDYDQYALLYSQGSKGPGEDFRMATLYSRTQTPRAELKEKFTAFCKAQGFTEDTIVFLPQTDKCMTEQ

[2] = system: antigen-induced nasal congestion in rats; assay: Effect on antigen-induced nasal congestion in rats; type: in vivo, rat; conditions: 10 mg/kg orally, 1 hour before nasal antigen; OVA-sensitized BN rats
Protocol: Six-week-old male BN/CrljCrlj SPF/VAF rats were purchased from Charles River Japan (Hino, Kanagawa) and used for experiments. Equal amounts of a 0.4 mg/mL ovalbumin/saline solution (OVA: Grade III, Cat. No. A-5378, Sigma-Aldrich, St. Louis, Mo., USA) and a 20 mg/mL suspension of aluminum hydroxide (alum: Cat. No. 014-01925, Wako Pure Chemical Industries) in saline were mixed to give a sensitizing fluid. First, a suspension of inactivated killed pertussis bacteria (Cat. No. 15330-91, Nacalai Tesque, Tokyo) was doubly diluted with saline. The diluted suspension was subcutaneously administered on the back of each rat at a dose of 0.1 mL (containing 10 billion bacterial cells) per rat, and immediately after that, the sensitizing fluid was intraperitoneally administered at a dose of 1 mL per rat. […]
The nasal congestion was evaluated based on the elevation of the intranasal pressure determined in the following manner. […] The pressure inside the nasal cavity was detected using a pressure transducer branched from the end of the cannula for measurement, and analyzed using Win-PULMOS-III (M.I.P.S. Inc., Osaka). The pressure inside the nasal cavity was measured for 3 minutes immediately after the connection to the cannula for measurement and the artificial ventilator, and the data was calculated for a 3-minute average.

mdx mice = assay: Myodegeneration in spontaneous muscular dystrophy model (mdx) mice; type: in vivo, mouse; conditions: in drinking water, about 30 mg/kg
Protocol: mdx Mice (C57BL/10ScSn-Dmd^mdx) were purchased in male and female pairs from Jackson Laboratories, and bred in-house for use. After weaned at 3 weeks old, male mdx mice were selected, which were subjected to the test from 4 weeks old. Compound 133 was dissolved in MEYLON 84 (registered trademark, 8.4% sodium bicarbonate injection, Otsuka) to prepare 12 mL of a 3 mg/mL solution thereof. This was added to and mixed with 188 mL of sterile tap water (final concentration of the compound: 180 μg/mL), and the mixture was administered by unrestricted intake (actual dose of the compound was about 30 mg/kg). […]
As evaluation of the diaphragm muscle, the degenerated and/or necrotic muscle area ratio of the diaphragm was determined. […] The thus prepared specimen was digitally shot at 20-fold magnification using a digital microscope (VHX-1000, KEYENCE, Osaka) and the images were recorded in TIFF format. Using the nature that degenerated and/or necrotic muscle absorbs EB and turns blue (J. Anat., 2002, 200, 69-79), the area of the diaphragm piece and the area of blue region showing the distribution of degenerated and/or necrotic muscle were determined with an image analyzer (LUZEX AP, Nireco, Tokyo). […]
For evaluation of the posterior crural muscle, the degenerated and/or necrotic muscle area ratio of the gastrocnemius muscle was determined. […]

In the case of O=C(O)c1cc(-c2ccco2)nc2ccc3nn(-c4ccccc4)nc3c12 [Compound 133, 7-(furan-2-yl)-2-phenyl-2H-[1,2,3]triazolo[4,5-f]quinoline-9-carboxylic acid], the inhibition at 10 µM [1] was at most 20%, the “inhibition of antigen-induced nasal congestion (intranasal pressure)” value [2] was 55% and the “inhibition of degeneration and/or necrosis of the diaphragm” value (mdx mice) was 40%. For the same compound, the “inhibition of degeneration and/or necrosis of the gastrocnemius muscle” value (mdx mice) was 49%.
